The record followed here is US20230372496A1, “TRICYCLIC HETEROBIFUNCTIONAL COMPOUNDS FOR DEGRADATION OF TARGETED PROTEINS” (C4 Therapeutics, Inc., priority 2020, published 2023).

Molecules are shown by their SMILES. Read-outs that look alike come from different tables or passages of the source.

One assay concerns the target NSP3 UBL2_PLpro-HA-HiBiT (Severe acute respiratory syndrome coronavirus 2, UniProt P0DTC1). Put plainly: NSP3 UBL2_PLpro-HA-HiBiT degradation assay (cellular) in 293T cells. To be noted: 6.0 hours; for DC50: read-out: HiBiT-Degradation 293T.234 NSP3_PLpro 6.0 hours (DC50); for Emax: HEK-293T, Emax = residual protein remaining after treatment, read-out: HiBiT-Degradation 293T.234 NSP3_PLpro 6.0 hours (Emax %). The class given is cell-based, Severe acute respiratory syndrome Coronavirus 2 (Sars-CoV-2). On the technique in general: With HiBiT, luminescence reflects the tagged protein that the partner subunit can reach.

The next assay deals with cellular cereblon (CRBN) (Homo sapiens, UniProt Q96SW2). Put plainly: NanoBRET CRBN assay, displacement of pomalidomide-NanoBRET tracer in 293T cells.
Chain of cellular cereblon (CRBN) (Q96SW2 whole entry, species assumed): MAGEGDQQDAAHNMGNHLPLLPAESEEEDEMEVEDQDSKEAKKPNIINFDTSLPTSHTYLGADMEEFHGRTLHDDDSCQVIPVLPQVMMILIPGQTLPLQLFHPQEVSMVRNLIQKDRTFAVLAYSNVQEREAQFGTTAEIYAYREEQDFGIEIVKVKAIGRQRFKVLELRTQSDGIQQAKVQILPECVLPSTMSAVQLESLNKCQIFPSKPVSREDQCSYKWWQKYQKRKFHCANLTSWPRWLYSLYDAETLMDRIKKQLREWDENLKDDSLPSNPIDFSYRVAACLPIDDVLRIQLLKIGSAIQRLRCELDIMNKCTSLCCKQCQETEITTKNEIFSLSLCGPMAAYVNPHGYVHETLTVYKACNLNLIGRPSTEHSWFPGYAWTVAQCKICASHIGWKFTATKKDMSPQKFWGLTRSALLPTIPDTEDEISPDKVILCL
Another assay addresses T1, CBP/P300 (Homo sapiens, UniProt Q92793).
T1 construct: endogenous in cells; host or cells: HEK293T (CRISPR/Cas9 HiBiT knock-in at the CBP locus)
Put plainly: CBP/P300 degradation, Nano-Glo HiBiT lytic assay. The class given is cell-based. The following applies: HEK293T HiBiT-CBP cells, 6 h incubation; for Emax: HEK-293T. The source says:
Assay media was DMEM no-phenol red medium and fetal bovine serum (FBS) were purchased from Gibco (Grand Island, N.Y., USA). Nano-Glo®, 1HiBiT Lydc Assay Systeni was purchased from Promega (Madison, Wis. USA). Stable HEK293T cell line with endogenously tagged HiBiT-CBP was generated in house by CRISPR/Cas9 gene editing introducing the HiBiT fusion tag at the N-terminus using homologous directed repair. Cell culture flasks and 384-well microplates were acquired from VWR (Radnor, Pa., USA).
CBP degradation was determined based on quantification of luminescent signal using Nano-Glo® HiBiT Lytic Assay kit. Test compounds were added to the 384-well plate from a top […] with 11 points, half log titration in duplicates, Cells were added into 384-well Corning 3570 plates, (Corning, Tewksbury, MA, USA) at a cell density of 10,000 cells per well in assay media. The plates were incubated at 37° C. with 5% CO2 for 6 hours. The cells treated in the absence of the test compound were the negative control and media was the positive control. After 6-hour incubation, Nano-Glo® HiBiT Lytic Assay reagents were added to the cells, Luminescence was acquired on EnVision™ Multilabel Reader (PerkinElmer, Santa Clara, Calif., USA).

For another assay, the target named is CRBN-DDB1 (Homo sapiens, UniProt Q96SW2). Put plainly: CRBN FP binding assay (fluorescence polarization). To be noted: 150 nM CRBN-DDB1, 5 nM Alexa-647 probe, read-out: FP CRBN_DDB1.3 ka. As for the experimental part:
The determination of the binding constant (KD) of test compounds to CRBN-DDB1 was carried out using an established sensitive and quantitative in vitro fluorescence polarization (FP) binding assay. Control compounds were run on the same plate. Compounds were dispensed from serially diluted DMSO stock supplied by Frontier Scientific Services Inc in low dead volume plates into black 384-well compatible FP plates using acoustic technology to 1% of total reaction volume. Compounds were arranged vertically in rows A through P. Concentrations series are horizontal: columns 1-11, and then duplicates in columns 12-22. Columns 23 and 24 are reserved for 0% (5 nM probe) and 100% controls (protein at high concentration with 5 nM probe), respectively. […] Matching control plates excluding CRBN-DDB1 were used to correct for background fluorescence. Plates were read on an Envision plate reader with appropriate FP filter sets.
(In general: Fluorescence polarisation rises when a labelled molecule tumbles more slowly, as on binding a larger partner.)

A further assay relates to ERK1/2. Put plainly: ERK1/2 degradation, Total ERK HTRF assay in Colo205 cells. The class given is cell-based. The following applies: 6 h, read-out: ERK1/2 6 h DC50 (Emax %). The method, then: Colo205 CCL-222 cells were purchased from ATCC. RPMI 1640 no-phenol red medium and fetal bovine serum (FBS) were purchased from Gibco (Grand Island, NY, USA). Cell culture flasks and 384-well microplates were acquired from VWR (Radnor, PA, USA). Total ERK HTRF assay kits were purchased from Cisbio (64NRKPEH, Bedford, MA, USA).
Degradation of ERK1/2 was determined based on quantification of FRET signal using a Total ERK1/2 HTRF assay kit. Test compounds were added to the 384-well plate from a top concentration of 10 μM with 10 points, half-log titration in duplicates. COL0205 cells were added into 384-well plates at a cell density of 5,000 cells per well. The plates were kept at 37° C. with 5% CO2 for 6 hours. Cells treated in the absence of the test compound were the negative control. Positive control was set by wells containing all reagents but no cells. HTRF regents were added according to manufacturer's instructions with the additional step of lysate denaturation at 95° C. for 10 minutes and cooling to room temperature before antibody addition. Following addition of the antibodies the samples were incubated overnight. FRET signal was acquired on an EnVision™ Multilabel Reader (PerkinElmer, Santa Clara, CA, USA).

Where [1] appears, read: 1.5 h room temperature, numeric bounds.
Where [2] appears, read: 1.5 h room temperature, class symbols.

Chain of CRBN-DDB1 (Q96SW2 whole entry): as the sequence (Q96SW2 whole entry, species assumed) above
Chain of CRBN-DDB1 (Q16531 whole entry partner): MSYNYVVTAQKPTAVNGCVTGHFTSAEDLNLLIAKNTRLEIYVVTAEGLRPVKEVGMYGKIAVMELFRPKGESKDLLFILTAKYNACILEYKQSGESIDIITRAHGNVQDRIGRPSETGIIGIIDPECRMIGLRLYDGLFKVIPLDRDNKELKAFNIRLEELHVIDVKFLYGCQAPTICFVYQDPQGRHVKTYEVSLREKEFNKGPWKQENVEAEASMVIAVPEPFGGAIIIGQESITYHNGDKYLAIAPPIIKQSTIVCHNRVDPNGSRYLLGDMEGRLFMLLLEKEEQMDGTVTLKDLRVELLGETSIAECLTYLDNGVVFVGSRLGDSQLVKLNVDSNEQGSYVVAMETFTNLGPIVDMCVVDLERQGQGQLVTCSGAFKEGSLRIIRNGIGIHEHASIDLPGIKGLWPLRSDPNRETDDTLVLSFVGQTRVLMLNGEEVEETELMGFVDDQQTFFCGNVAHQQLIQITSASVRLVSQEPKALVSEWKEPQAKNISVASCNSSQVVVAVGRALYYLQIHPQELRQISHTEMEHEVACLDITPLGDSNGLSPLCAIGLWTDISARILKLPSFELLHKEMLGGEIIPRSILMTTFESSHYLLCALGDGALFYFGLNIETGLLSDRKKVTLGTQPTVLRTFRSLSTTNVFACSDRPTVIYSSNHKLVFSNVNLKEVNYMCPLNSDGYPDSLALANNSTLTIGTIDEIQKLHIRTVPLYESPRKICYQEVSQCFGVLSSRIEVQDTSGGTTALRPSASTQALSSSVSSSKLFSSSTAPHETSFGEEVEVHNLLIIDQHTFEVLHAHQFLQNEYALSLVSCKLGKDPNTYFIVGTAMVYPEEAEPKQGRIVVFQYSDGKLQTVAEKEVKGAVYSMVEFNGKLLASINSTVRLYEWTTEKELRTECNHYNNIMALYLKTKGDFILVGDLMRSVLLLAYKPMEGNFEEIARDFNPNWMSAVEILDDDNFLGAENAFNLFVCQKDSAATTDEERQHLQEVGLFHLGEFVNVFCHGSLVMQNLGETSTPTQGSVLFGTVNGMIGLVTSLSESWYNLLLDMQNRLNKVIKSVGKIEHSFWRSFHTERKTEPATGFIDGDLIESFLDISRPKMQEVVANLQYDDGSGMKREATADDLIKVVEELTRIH
T1 sequence (Q92793 whole entry): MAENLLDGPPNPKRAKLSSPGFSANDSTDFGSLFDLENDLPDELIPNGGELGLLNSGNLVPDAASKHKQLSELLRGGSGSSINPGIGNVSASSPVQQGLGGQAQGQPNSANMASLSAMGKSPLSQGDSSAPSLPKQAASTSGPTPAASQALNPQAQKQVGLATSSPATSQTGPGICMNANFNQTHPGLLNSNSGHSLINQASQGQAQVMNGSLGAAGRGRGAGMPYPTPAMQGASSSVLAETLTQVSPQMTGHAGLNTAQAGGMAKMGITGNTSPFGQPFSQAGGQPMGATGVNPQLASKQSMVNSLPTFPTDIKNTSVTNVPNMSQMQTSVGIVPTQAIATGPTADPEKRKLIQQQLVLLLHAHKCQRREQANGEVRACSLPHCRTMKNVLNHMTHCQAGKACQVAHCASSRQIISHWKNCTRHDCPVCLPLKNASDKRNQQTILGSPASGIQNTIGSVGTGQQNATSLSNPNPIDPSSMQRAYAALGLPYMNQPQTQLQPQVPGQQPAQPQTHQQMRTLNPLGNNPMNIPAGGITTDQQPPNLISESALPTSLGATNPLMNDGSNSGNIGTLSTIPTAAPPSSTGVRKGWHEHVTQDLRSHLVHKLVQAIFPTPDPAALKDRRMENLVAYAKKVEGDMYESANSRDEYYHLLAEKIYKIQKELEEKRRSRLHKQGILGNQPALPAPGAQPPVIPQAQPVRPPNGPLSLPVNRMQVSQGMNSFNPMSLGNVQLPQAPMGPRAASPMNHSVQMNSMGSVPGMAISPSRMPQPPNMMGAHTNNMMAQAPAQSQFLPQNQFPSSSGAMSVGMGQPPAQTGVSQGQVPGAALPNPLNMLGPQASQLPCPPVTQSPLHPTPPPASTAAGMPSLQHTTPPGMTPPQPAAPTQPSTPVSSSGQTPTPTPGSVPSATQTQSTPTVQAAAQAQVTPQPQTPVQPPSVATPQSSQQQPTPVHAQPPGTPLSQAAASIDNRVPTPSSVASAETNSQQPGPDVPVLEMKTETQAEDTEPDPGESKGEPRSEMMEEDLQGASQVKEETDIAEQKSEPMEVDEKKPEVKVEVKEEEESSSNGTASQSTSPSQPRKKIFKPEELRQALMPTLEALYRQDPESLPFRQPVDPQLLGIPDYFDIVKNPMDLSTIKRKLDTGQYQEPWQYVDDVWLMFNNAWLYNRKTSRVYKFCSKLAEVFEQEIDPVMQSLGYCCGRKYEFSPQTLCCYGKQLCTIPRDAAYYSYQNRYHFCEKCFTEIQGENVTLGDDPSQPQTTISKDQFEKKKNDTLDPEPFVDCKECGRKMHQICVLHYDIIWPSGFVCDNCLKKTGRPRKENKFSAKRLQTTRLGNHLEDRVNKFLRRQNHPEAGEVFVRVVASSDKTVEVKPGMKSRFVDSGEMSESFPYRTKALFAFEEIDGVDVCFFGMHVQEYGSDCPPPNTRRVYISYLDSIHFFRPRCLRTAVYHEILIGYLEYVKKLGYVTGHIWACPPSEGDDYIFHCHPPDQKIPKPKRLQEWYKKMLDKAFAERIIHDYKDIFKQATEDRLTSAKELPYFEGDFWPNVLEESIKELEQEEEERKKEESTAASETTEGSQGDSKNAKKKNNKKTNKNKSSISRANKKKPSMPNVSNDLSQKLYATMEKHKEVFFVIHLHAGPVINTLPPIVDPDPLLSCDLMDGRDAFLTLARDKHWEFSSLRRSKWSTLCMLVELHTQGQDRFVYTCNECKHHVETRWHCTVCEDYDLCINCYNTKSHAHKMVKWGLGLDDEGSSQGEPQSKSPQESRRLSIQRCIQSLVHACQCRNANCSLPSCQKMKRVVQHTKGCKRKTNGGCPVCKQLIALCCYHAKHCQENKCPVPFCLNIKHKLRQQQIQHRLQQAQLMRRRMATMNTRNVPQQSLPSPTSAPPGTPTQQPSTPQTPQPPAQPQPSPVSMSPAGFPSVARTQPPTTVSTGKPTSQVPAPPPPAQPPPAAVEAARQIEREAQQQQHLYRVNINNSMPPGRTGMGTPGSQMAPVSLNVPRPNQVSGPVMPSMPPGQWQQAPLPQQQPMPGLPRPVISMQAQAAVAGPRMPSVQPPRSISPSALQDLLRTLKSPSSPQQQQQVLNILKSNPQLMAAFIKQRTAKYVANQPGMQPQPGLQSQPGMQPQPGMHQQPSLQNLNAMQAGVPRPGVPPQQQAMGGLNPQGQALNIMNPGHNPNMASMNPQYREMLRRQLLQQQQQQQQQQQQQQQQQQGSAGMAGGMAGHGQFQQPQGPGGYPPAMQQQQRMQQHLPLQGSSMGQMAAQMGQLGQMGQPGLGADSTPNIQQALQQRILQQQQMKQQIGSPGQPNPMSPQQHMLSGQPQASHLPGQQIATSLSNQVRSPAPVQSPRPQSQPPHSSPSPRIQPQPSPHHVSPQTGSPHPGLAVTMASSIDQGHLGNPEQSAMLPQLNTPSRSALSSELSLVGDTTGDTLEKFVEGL

What is called Emax is the size of the effect at its maximum, as opposed to the concentration needed. Take `CC(c1cccc2c(C#CC3CCN(C(=O)CN4CCC(c5ccc6c7c(cccc57)C(=O)N6C5CCC(=O)NC5=O)CC4)CC3)cccc12)N1CCC(C(=O)NCc2cccc(F)c2)CC1` (stereo not drawn) [Compound 104, 1-[1-[5-[2-[1-[2-[4-[1-(2,6-dioxo-3-piperidyl)-2-oxo-benzo[cd]indol-6-yl]-1-piperidyl]acetyl]-4-piperidyl]ethynyl]-1-naphthyl]ethyl]-N-[(3-fluorophenyl)methyl]piperidine-4-carboxamide]: at NSP3 UBL2_PLpro-HA-HiBiT, the DC50 is over 10000 nM and the Emax is 61 to 95%.
The term IC50 denotes the concentration needed to halve the response being measured. A low value points to greater potency. For `O=C1CCC(N2C(=O)c3cccc4c(C5CCNCC5)ccc2c34)C(=O)N1` (stereo not drawn), the IC50 at cellular cereblon (CRBN) is under 100 nM.
At CBP/P300, `CNC(=O)N1CCc2c(c(N3CCCc4cc(-c5cnn(C)c5)c(C(F)F)cc43)nn2C2CCN(C(=O)CCCCCCCCN3CCC(Nc4ccc5c6c(cccc46)C(=O)N5C4CCC(=O)NC4=O)CC3)CC2)C1` (stereo not drawn) had a DC50 of under 10 nM and an Emax of under 30%. The Kd on CRBN-DDB1 (setting [1]) is under 10 nM.
Consider `CC(c1cccc2c(C#CC3CCN(C(=O)CN4CCC(c5ccc6c7c(cccc57)N(C5CCC(=O)NC5=O)C6=O)CC4)CC3)cccc12)N1CCC(C(=O)NCc2cccc(F)c2)CC1` (stereo not drawn) [Compound 105, 1-[1-[5-[2-[1-[2-[4-[1-(2,6-dioxo-3-piperidyl)-2-oxo-benzo[cd]indol-5-yl]-1-piperidyl]acetyl]-4-piperidyl]ethynyl]-1-naphthyl]ethyl]-N-[(3-fluorophenyl)methyl]piperidine-4-carboxamide], for which, on NSP3 UBL2_PLpro-HA-HiBiT, the DC50 is over 10000 nM and the maximum response (Emax) is 61 to 95%.
Turning to `O=C1CCC(N2C(=O)c3cccc4c(C5CCN(CC(=O)N6CC(c7nc8ccc(-c9n[nH]c%10cc%11c(cc9%10)CN(Cc9ccccc9)C(=O)N%11)cc8o7)C6)CC5)ccc2c34)C(=O)N1` (stereo not drawn), the Kd at CRBN-DDB1 (class symbols) was in the range of 1000 to 10000 nM. In the assay with ERK1/2, the DC50 is 100 to 1000 nM.
As for `COC(=O)c1ccc2c3c(cccc13)C(=O)N2C1CCC(=O)NC1=O` (stereo not drawn), the Kd on CRBN-DDB1 (setting [2]) was 100 to 1000 nM. On cellular cereblon (CRBN), the IC50 was under 100 nM.
Take `CC(c1ccc(C#CC2CCN(C(=O)CN3CCC(c4ccc5c6c(cccc46)C(=O)N5C4CCC(=O)NC4=O)CC3)CC2)c2ccccc12)N1CCC(C(=O)NCc2cccc(F)c2)CC1` (stereo not drawn) [Compound 102, 1-[1-[4-[2-[1-[2-[4-[1-(2,6-dioxo-3-piperidyl)-2-oxo-benzo[cd]indol-6-yl]-1-piperidyl]acetyl]-4-piperidyl]ethynyl]-1-naphthyl]ethyl]-N-[(3-fluorophenyl)methyl]piperidine-4-carboxamide]: on NSP3 UBL2_PLpro-HA-HiBiT, the DC50 was over 10000 nM and the Emax lay within 61 to 95%.
Consider `Nc1ccc2c3c(cccc13)C(=O)N2C1CCC(=O)NC1=O` (stereo not drawn), for which the Kd at CRBN-DDB1 (setting [2]) lay within 100 to 1000 nM. Besides, the IC50 at cellular cereblon (CRBN) was under 100 nM.
Consider `O=C1CCC(N2C(=O)C3CCCc4c(C5CCN(CCCC(=O)N6CC(c7nc8ccc(-c9n[nH]c%10cc%11c(cc9%10)CN(Cc9ccccc9)C(=O)N%11)cc8o7)C6)CC5)ccc2c43)C(=O)N1` (stereo not drawn), for which, on CRBN-DDB1 (class symbols), the Kd lay in the range of 1000 to 10000 nM. Also, the DC50 in the assay on ERK1/2 is 100 to 1000 nM.
For the molecule `CNC(=O)N1CCc2c(c(N3CCCc4cc(-c5cnn(C)c5)c(C(F)F)cc43)nn2C2CCN(C(=O)CCCCCCCCN3CCC(c4ccc5c6c(cccc46)C(=O)N5C4CCC(=O)NC4=O)CC3)CC2)C1` (stereo not drawn), on CBP/P300, the DC50 was under 10 nM and the Emax is under 30%. For the same molecule, the Kd at CRBN-DDB1 (setting [1]) was under 10 nM.
Regarding `CC(c1ccc(C#CC2CCN(C(=O)CN3CCC(c4ccc5c6c(cccc46)N(C4CCC(=O)NC4=O)C5=O)CC3)CC2)c2ccccc12)N1CCC(C(=O)NCc2cccc(F)c2)CC1` (stereo not drawn) [Compound 103, 1-[1-[4-[2-[1-[2-[4-[1-(2,6-dioxo-3-piperidyl)-2-oxo-benzo[cd]indol-5-yl]-1-piperidyl]acetyl]-4-piperidyl]ethynyl]-1-naphthyl]ethyl]-N-[(3-fluorophenyl)methyl]piperidine-4-carboxamide], on NSP3 UBL2_PLpro-HA-HiBiT, the DC50 is over 10000 nM and the Emax was 61 to 95%.
Turning to `N#Cc1ccc2c3c(cccc13)C(=O)N2C1CCC(=O)NC1=O` (stereo not drawn), on cellular cereblon (CRBN), the IC50 is under 100 nM.
